By IC50 is commonly meant the concentration at which inhibition is half-maximal.

Here are results for 27 molecules from US12590099B2, “Inhibitors of histone deacetylase useful for the treatment or prevention of HIV infection” (Merck Sharp & Dohme LLC, priority 2018, dated 2026).

Where two headings read alike, the source gives them in different places.

Assay type in all cases: biochemical
One test deals with T1, Recombinant human HDAC2 (Homo sapiens, UniProt Q92769).
T1 construct: Full length human HDAC2-FLAG was expressed in baculovirus infected Sf9 cells; FLAG (C); made in house; host or cells: Sf9 (baculovirus)
Briefly: Human HDAC enzyme inhibitor Fluor-de-Lys assay, HDAC2. The method in brief: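 Fluor-de-Lys format at room temperature (23° C.): compounds titrated 10-point, 1:3, preincubated with HDAC before substrate addition. Developer with excess HDAC inhibitor ends the reaction, and trypsin-liberated AMC fluorescence is the read-out.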

The target of another test is T2, HDAC6 (Homo sapiens, UniProt Q9UBN7).
T2 sequence (Q9UBN7 1-1215): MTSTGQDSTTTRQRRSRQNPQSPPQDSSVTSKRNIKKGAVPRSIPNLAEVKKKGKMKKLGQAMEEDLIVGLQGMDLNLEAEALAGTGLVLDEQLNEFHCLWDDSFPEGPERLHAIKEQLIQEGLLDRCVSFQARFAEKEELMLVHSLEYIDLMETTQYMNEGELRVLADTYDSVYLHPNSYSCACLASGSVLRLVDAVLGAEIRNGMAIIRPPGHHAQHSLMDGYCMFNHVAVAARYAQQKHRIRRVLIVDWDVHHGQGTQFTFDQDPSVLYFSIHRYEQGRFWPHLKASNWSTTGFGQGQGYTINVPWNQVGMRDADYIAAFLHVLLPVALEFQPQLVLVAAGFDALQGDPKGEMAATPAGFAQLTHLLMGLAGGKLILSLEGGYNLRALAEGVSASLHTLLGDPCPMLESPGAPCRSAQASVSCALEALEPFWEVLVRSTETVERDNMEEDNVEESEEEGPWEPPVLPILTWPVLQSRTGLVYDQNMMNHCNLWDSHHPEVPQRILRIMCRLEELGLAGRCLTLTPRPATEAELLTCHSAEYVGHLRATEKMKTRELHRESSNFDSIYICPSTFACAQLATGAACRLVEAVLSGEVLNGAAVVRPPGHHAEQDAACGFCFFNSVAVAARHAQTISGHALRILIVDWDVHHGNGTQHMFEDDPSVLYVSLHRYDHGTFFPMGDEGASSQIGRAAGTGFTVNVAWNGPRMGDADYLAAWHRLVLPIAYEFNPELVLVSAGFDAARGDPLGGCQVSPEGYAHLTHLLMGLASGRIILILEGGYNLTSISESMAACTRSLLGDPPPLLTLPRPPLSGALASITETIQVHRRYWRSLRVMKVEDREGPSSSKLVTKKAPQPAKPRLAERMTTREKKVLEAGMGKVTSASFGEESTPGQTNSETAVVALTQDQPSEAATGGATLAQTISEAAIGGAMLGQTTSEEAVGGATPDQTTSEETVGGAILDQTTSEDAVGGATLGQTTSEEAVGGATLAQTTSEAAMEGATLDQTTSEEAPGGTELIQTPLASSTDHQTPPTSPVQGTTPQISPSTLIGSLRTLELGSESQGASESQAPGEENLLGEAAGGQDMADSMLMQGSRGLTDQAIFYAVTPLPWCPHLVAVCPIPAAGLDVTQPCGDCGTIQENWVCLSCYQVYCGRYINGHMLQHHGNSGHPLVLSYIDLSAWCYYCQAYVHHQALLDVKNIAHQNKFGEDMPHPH
Description: Human HDAC enzyme inhibitor Fluor-de-Lys assay, HDAC6.

A further test deals with T3, Recombinant human HDAC8 (Homo sapiens, UniProt Q9BY41).
T3 construct: purchased Enzo Life Sciences BML-SE145-0100
T3 sequence (Q9BY41 1-377): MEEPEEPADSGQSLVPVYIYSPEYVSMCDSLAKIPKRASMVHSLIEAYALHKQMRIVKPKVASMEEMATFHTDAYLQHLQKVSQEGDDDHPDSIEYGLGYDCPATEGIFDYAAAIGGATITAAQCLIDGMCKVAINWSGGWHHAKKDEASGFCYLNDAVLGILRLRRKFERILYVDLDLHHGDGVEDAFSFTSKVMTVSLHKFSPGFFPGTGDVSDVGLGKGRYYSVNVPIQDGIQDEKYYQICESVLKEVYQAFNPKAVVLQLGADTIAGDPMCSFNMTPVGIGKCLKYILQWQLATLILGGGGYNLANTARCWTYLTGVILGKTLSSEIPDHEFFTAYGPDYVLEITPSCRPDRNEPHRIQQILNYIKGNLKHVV
Briefly: Human HDAC enzyme inhibitor Fluor-de-Lys assay, HDAC8.

[1] abbreviates: recombinant human HDAC2, Fluor-de-Lys assay.
Setting [2] is: recombinant human HDAC8, Fluor-de-Lys assay.

T1 sequence (Q92769 whole entry): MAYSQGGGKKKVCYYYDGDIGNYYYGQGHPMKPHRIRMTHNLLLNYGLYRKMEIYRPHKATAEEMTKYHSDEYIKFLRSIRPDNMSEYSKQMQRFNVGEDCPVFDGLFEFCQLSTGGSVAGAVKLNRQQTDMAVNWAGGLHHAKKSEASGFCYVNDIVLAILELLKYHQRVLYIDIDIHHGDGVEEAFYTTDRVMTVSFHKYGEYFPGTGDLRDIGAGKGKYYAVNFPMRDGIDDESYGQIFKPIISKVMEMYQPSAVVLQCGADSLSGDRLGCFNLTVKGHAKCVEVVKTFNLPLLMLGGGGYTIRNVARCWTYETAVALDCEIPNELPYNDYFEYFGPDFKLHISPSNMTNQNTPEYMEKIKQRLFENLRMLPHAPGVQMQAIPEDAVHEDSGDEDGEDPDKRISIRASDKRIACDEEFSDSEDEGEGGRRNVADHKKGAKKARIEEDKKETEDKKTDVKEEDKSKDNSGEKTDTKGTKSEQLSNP

Consider `CCC(=O)CCCCC[C@H](NC(=O)[C@H]1CC12CN(C)C2)c1ncc(-c2cc3ccc(C)nc3cc2OC)o1` (single isomer, unassigned) [Compound 230], for which the IC50 on Recombinant human HDAC2 (setting [1]) is 2.7 nM; against HDAC6 (HDAC6, Fluor-de-Lys assay), 396 nM; on Recombinant human HDAC8 (setting [2]), greater than 900 nM.
The like results for `CCC(=O)CCCCC[C@H](NC(=O)[C@@H]1CC12CN(C)C2)c1ncc(-c2cc3ccc(C)nc3cc2OC)o1` (single isomer, unassigned) [Compound 231] were, in that order, 19.2 nM, 220 nM and greater than 900 nM.
On to `CCC(=O)CCCCC[C@H](NC(=O)C1CC12CC1CCC(C2)N1C)c1ncc(-c2ccc3ncccc3c2)[nH]1` (single isomer, unassigned) [Compound 242], for which the IC50 on Recombinant human HDAC2 (setting [1]) was found to be 16.1 nM; against HDAC6 (HDAC6, Fluor-de-Lys assay) it was 133 nM; on Recombinant human HDAC8 (setting [2]) it was 5100 nM.
As to `CCC(=O)CCCCC[C@H](NC(=O)[C@H]1CC12CCN(C)CC2)c1ncc(-c2ccc3nc(C(F)(F)F)ccc3c2)o1` [Compound 78, (1S)-6-methyl-N-[(1S)-7-oxo-1-{5-[2-(trifluoromethyl)quinolin-6-yl]-1,3-oxazol-2-yl}nonyl]-6-azaspiro[2.5]octane-1-carboxamide], the IC50 is 62.3 nM on Recombinant human HDAC2, 33500 nM against HDAC6 and greater than 45000 nM at Recombinant human HDAC8.
In the case of `CCC(=O)CCCCC[C@H](NC(=O)[C@H]1CC12CCN(C)CC2)c1ncc(-c2ccc3nc(C)ccc3c2)o1` [Compound 80], the values for the IC50 at Recombinant human HDAC2, on HDAC6 and at Recombinant human HDAC8 were 14.8 nM, 1680 nM and greater than 45000 nM, respectively.
The like results for `CCC(=O)CCCCC[C@H](NC(=O)[C@H]1CC12CCN(C)CC2)c1nc(Cl)c(-c2cc3ccccc3nc2O)[nH]1` [Compound 81, (1S)—N-{(1S)-1-[4-chloro-5-(2-hydroxyquinolin-3-yl)-1H-imidazol-2-yl]-7-oxononyl}-6-methyl-6-azaspiro[2.5]octane-1-carboxamide] were, in that order, 337 nM, 3870 nM and 5350 nM.
Consider `CCC(=O)CCCCC[C@H](NC(=O)[C@H]1CC12CCN(C(C)C)CC2)c1ncc(-c2ccc3nc(C)ccc3c2)[nH]1` [Compound 83], for which the IC50 was less than 1.5 nM on Recombinant human HDAC2, 2620 nM against HDAC6 and 15200 nM at Recombinant human HDAC8.
Consider `CN1CCC2(CC1)C[C@@H]2C(=O)N[C@@H](CCCCCC(=O)CC1CC1)c1ncc(-c2ccc(F)cc2)[nH]1` [Compound 84], for which the concentration for half-maximal inhibition (IC50) on Recombinant human HDAC2 was found to be 63.8 nM; against HDAC6 it was 3780 nM; on Recombinant human HDAC8, 14300 nM.
`CCC(=O)CCCCC[C@H](NC(=O)[C@H]1CC12CCN(C)CC2)c1ncc(-c2coc3ccccc3c2=O)[nH]1` [Compound 86]: the IC50 was determined as 64.8 nM at Recombinant human HDAC2, 3330 nM at HDAC6 and 3170 nM at Recombinant human HDAC8.
As to `CCC(=O)CCCCC[C@H](NC(=O)[C@H]1CC12CCN(C)CC2)c1ncc(-c2ccc3ncoc3c2)[nH]1` [Compound 89], the IC50 on HDAC6 is 7590 nM; at Recombinant human HDAC8, 9700 nM.
For the molecule `CCC(=O)CCCCC[C@H](NC(=O)[C@H]1CC12CCN(C)CC2)c1ncc(-c2ccc3cc(C#N)ccc3c2)[nH]1` [Compound 90], the values for the IC50 at Recombinant human HDAC2, on HDAC6 and on Recombinant human HDAC8 were 1.6 nM, 1010 nM and 2640 nM, respectively.
As for `CCC(=O)CCCCC[C@H](NC(=O)[C@H]1CC12CCN(C)CC2)c1[nH]c(-c2ccc(F)cc2)nc1Cl` [Compound 91], the IC50 at Recombinant human HDAC2 was 14.2 nM; against HDAC6, 27500 nM; at Recombinant human HDAC8, 31900 nM.
The like results for `CCC(=O)CCCCC[C@H](NC(=O)[C@H]1CC12CCN(CC)CC2)c1ncc(-c2ccc(-c3nccs3)cc2)o1` [Compound 93] were, in that order, 25.6 nM, 955 nM and 31800 nM.
`CCC(=O)CCCCC[C@H](NC(=O)[C@H]1CC12CCN(CC)CC2)c1ncc(-c2ccc(-c3ncco3)cc2)o1` [Compound 94]: the IC50 at Recombinant human HDAC2 came to 34 nM; at HDAC6 it was 2300 nM; at Recombinant human HDAC8 it was 44200 nM.
Turning to `CCC(=O)CCCCC[C@H](NC(=O)[C@H]1CC12CCN(CC)CC2)c1ncc(-c2ccc(-n3cccn3)cc2)o1` [Compound 95], the IC50 was found to be 31.5 nM at Recombinant human HDAC2, 1250 nM at HDAC6 and 20500 nM at Recombinant human HDAC8.
For the molecule `CCC(=O)CCCCC[C@H](NC(=O)[C@H]1CC12CCN(C(C)C)CC2)c1ncc(-c2ccc3c(ccc(=O)n3C)c2)o1` [Compound 96], the IC50 at Recombinant human HDAC2 is 44.5 nM; against HDAC6, 7300 nM; on Recombinant human HDAC8, greater than 45000 nM.
Turning to `CCC(=O)CCCCC[C@H](NC(=O)[C@H]1CC12CCN(CC)CC2)c1ncc(-c2ccc3c(ccc(=O)n3C)c2)o1` [Compound 97], the results for the IC50 at Recombinant human HDAC2, against HDAC6 and at Recombinant human HDAC8 were 23 nM, 7090 nM and greater than 45000 nM, respectively.
Turning to `CCC(=O)CCCCC[C@H](NC(=O)[C@H]1CC12CCN(C(C)C)CC2)c1ncc(-c2cc3ccccc3nc2OC)o1` [Compound 99], the IC50 at Recombinant human HDAC2 was determined as 17.8 nM; against HDAC6 it was 110 nM; on Recombinant human HDAC8 it was 32900 nM.
In the case of `CCC(=O)CCCCC[C@H](NC(=O)[C@H]1CC12CCN(C(C)C)CC2)c1ncc(-c2ccc3nc(C4CC4)ccc3c2)[nH]1` [Compound 100], the IC50 on Recombinant human HDAC2 is less than 1.5 nM; at HDAC6 it was 11900 nM; at Recombinant human HDAC8 it was 8250 nM.
Consider `CCC(=O)CCCCC[C@H](NC(=O)C1=NOC2(CCN(C)CC2)C1)c1ncc(-c2ccc(-c3cccnc3)cc2OC)o1` [Compound 222, N-{(1S)-1-[5-(2-methoxy-4-pyridin-3-ylphenyl)-1,3-oxazol-2-yl]-7-oxononyl}-8-methyl-1-oxa-2,8-diazaspiro[4.5]dec-2-ene-3-carboxamide], for which the 50% inhibitory concentration (IC50) is 24.5 nM on Recombinant human HDAC2 (setting [1]); greater than 900 nM against HDAC6 (HDAC6, Fluor-de-Lys assay); greater than 900 nM on Recombinant human HDAC8 (setting [2]).
Turning to `CCC(=O)CCCCC[C@H](NC(=O)C1=NOC2(CCN(C)CC2)C1)c1ncc(-c2cc3cccnc3cc2OC)o1` [Compound 223], the IC50 was 9.7 nM at Recombinant human HDAC2 (setting [1]); 237 nM on HDAC6 (HDAC6, Fluor-de-Lys assay); greater than 900 nM at Recombinant human HDAC8 (setting [2]).
For `CCC(=O)CCCCC[C@H](N)c1ncc(-c2cc3ccc(=O)n(C)c3cc2OC)o1` [Compound 224], in that order: 444 nM, greater than 900 nM and greater than 900 nM.
For `CCC(=O)CCCCC[C@H](NC(=O)C1=NOC2(CCN(CC3CC3)CC2)C1)c1ncc(-c2cc3ccc(C)nc3cc2OC)o1` [Compound 225], the IC50 at Recombinant human HDAC2 (setting [1]) was 6.2 nM; at HDAC6 (HDAC6, Fluor-de-Lys assay), 759 nM; on Recombinant human HDAC8 (setting [2]) it was greater than 900 nM.
With `CCC(=O)CCCCC[C@H](NC(=O)[C@H]1CC12CCN(CC1CC1)CC2)c1ncc(-c2cc3ccc(C)nc3cc2F)[nH]1` [Compound 228], the IC50 at Recombinant human HDAC2 (setting [1]) was 0.6 nM; against HDAC6 (HDAC6, Fluor-de-Lys assay) it was greater than 900 nM; at Recombinant human HDAC8 (setting [2]), greater than 900 nM.
As for `CCC(=O)CCCCC[C@H](NC(=O)[C@H]1CC12CCN(CC1CC1)CC2)c1ncc(-c2cc3ccn(C)c(=O)c3cc2OC)o1` [Compound 229], the IC50 at Recombinant human HDAC2 (setting [1]) is 0.7 nM; against HDAC6 (HDAC6, Fluor-de-Lys assay), 451 nM; on Recombinant human HDAC8 (setting [2]) it was greater than 900 nM.
As for `CCC(=O)CCCCC[C@H](NC(=O)C1=NOC2(CCN(C)CC2)C1)c1ncc(-c2cc3ccc(C)nc3cc2F)[nH]1` [Compound 232], the IC50 was 21.4 nM on Recombinant human HDAC2 (setting [1]); greater than 900 nM on HDAC6 (HDAC6, Fluor-de-Lys assay); greater than 900 nM at Recombinant human HDAC8 (setting [2]).
`CCC(=O)CCCCC[C@H](NC(=O)C1=NOC2(CCN(CC)CC2)C1)c1ncc(-c2cc3ccc(C)nc3cc2F)[nH]1` [Compound 233]: the IC50 was 25.2 nM at Recombinant human HDAC2 (setting [1]); greater than 900 nM against HDAC6 (HDAC6, Fluor-de-Lys assay); greater than 900 nM at Recombinant human HDAC8 (setting [2]).
